Data published in patent US7456271B2, “Glutamate 2,3-aminomutases and methods of use thereof” (Wisconsin Alumni Research Foundation, priority 2005, dated 2008).
Read-outs that look alike come from different tables or passages of the source.

Assays:
[1] = target: T1, C. difficile Glutamate 2,3-aminomutase (Clostridioides difficile, UniProt Q185C5, V264I); type: biochemical, Clostridium difficile; settings: for rate of reaction to the other isomer: 20 mM substrate; for Specific Activity: substrate 20 mM
T1 construct: made in house; host or cells: E. coli BL21(DE3) CodonPlus RILP, pET23a(+)
Method: Glutamate 2,3-aminomutase Activity Measurements. Enzyme assays were conducted in an anaerobic chamber (Coy, Grass Lake, Mich.) at 37° C. […] At various time intervals (0-3 min), 45 μl of reaction mix was added to 15 μl of 2N perchloric acid to stop the reaction. Samples were centrifuged at 14,000×g for 10 min. The supernatant fluids were treated with PITC according to the method of Heinrikson and Meredith (20). Samples were dissolved in 100 μl of coupling buffer, concentrated to dryness by vacuum centrifugation, redissolved in 400 μl coupling buffer plus 20 μl of PITC, allowed to react for 30 min at room temperature, concentrated to dryness as above, and dissolved in either 0.5 or 1.0 ml water prior to injection (50 or 100 μl). The PITC derivative of L-glutamate was separated from the β-glutamate derivative by HPLC chromatography (20) using a C18 reverse phase column (Phenomenex Gemini 5μ, 4.6 mm×25 cm, #G-4435-E0), flow rate 1 ml/min, room temperature. The PITC-amino acids were separated with a linear gradient composed of 0.05 M ammonium acetate in water (buffer A) and 0.1 M ammonium acetate in 44% water, 46% acetonitrile, and 10% methanol (buffer B). The gradient established was 0-10% Buffer B in 20 min, 10-100% Buffer B in 10 min. […] Concentrations of L-glutamate or β-glutamate were measured using an amino acid standard solution (Pierce Chemical Co., #20088). For enzyme activity measurements at selected time points, the peak area of either L-glutamate or β-glutamate was divided by the total peak area (L-glutamate+β-glutamate) and multiplied by the starting concentration of either L-glutamate or β-glutamate to obtain molar concentrations. Enzyme kinetic parameters were determined by varying the concentration of L-glutamate (0.6-20 mM). Two separate analyses were conducted at two concentrations of enzyme (0.75 and 0.15 μM—subunit) with remaining conditions as stated above. Initial velocities were measured and used to calculate kinetic parameters (Vmax and Km) by the nonlinear least squares curve fitting method of Cleland (25).

[2] = target: T1, C. difficile Glutamate 2,3-aminomutase; type: biochemical, Clostridium difficile; settings: for Keq: 24° C.
Method: Measurement of the Equilibrium Constant for Conversion of L-Glutamate into β-Glutamate Catalyzed by Glutamate 2,3-aminomutase. Assays were conducted as previously described (see activity measurements above) except at 24° C. […] Initial enzyme concentrations were either 0.75 μM or 0.15 μM. After approximately 4 hours at 24° C., an additional aliquot of enzyme was added to make the final enzyme concentration either 1.5 μM or 0.3 μM, and the reaction was allowed to proceed for an additional 16 hours at 24° C. The reaction was stopped with 0.55 N perchloric acid, and the amino acids were derivatized with PITC as previously described. Following HPLC separation of the PITC derivatized L-glutamate and β-glutamate, the simple ratio of the peak areas of the two compounds was calculated based on the equivalent extinction coefficient of the two compounds (20).

## O=S([O-])S(=O)[O-].[Na+].[Na+] [dithionite, sodium dithionite, reference compound]
[1]; excess, progressive loss of activity over time at >70 μM (FIG. 3)
  effect of excess on enzyme activity: inhibitory

## NC(CC(=O)O)CC(=O)O [β-Glutamate, β-glutamate]
[2]; [β-Glutamate] start 0.6 mM, [Enzyme] 0.30 μM (subunit)
  Keq: 15.6
[2]; [β-Glutamate] start 0.6 mM, [Enzyme] 1.5 μM (subunit)
  Keq: 15.3
[2]; [β-Glutamate] start 1.4 mM, [Enzyme] 0.30 μM (subunit)
  Keq: 15.6
[2]; [β-Glutamate] start 1.4 mM, [Enzyme] 1.5 μM (subunit)
  Keq: 15.8
[2]; [β-Glutamate] start 3.1 mM, [Enzyme] 0.30 μM (subunit)
  Keq: 16.2
[2]; [β-Glutamate] start 3.1 mM, [Enzyme] 1.5 μM (subunit)
  Keq: 16.3
[2]; [β-Glutamate] start 6.2 mM, [Enzyme] 0.30 μM (subunit)
  Keq: 15.7
[2]; [β-Glutamate] start 6.2 mM, [Enzyme] 1.5 μM (subunit)
  Keq: 16.4
[2]; [β-Glutamate] start 12.3 mM, [Enzyme] 0.30 μM (subunit)
  Keq: 16.6
[2]; [β-Glutamate] start 12.3 mM, [Enzyme] 1.5 μM (subunit)
  Keq: 16.4
[2]; [β-Glutamate] start 22.9 mM, [Enzyme] 1.5 μM (subunit)
  Keq: 15.9
[2]; [β-Glutamate] start 24.3 mM, [Enzyme] 0.30 μM (subunit)
  Keq: 16.1
[2]; same end point from either substrate
  equilibrium ratio of β-Glu to L-glutamate: approximately 16
[1]
  rate of reaction to the other isomer: 2.3 μmoles min^−1· (mg protein)^−1
[1]; SAM +, Dithionite +, 37° C.
  Specific Activity: 2.3 μmoles · min^−1 · mg^−1 Protein

## N[C@@H](CCC(=O)O)C(=O)O [L-Glutamate, L-glutamate]
[2]; [L-Glutamate] start 0.6 mM, [Enzyme] 1.5 μM (subunit)
  Keq: 14.2
[2]; [L-Glutamate] start 0.8 mM, [Enzyme] 0.30 μM (subunit)
  Keq: 14.8
[2]; [L-Glutamate] start 1.4 mM, [Enzyme] 1.5 μM (subunit)
  Keq: 15.2
[2]; [L-Glutamate] start 1.6 mM, [Enzyme] 0.30 μM (subunit)
  Keq: 15.7
[2]; [L-Glutamate] start 3.1 mM, [Enzyme] 1.5 μM (subunit)
  Keq: 16.0
[2]; [L-Glutamate] start 3.2 mM, [Enzyme] 0.30 μM (subunit)
  Keq: 15.9
[2]; [L-Glutamate] start 6.4 mM, [Enzyme] 0.30 μM (subunit)
  Keq: 15.9
[2]; [L-Glutamate] start 6.6 mM, [Enzyme] 1.5 μM (subunit)
  Keq: 15.6
[2]; [L-Glutamate] start 12.4 mM, [Enzyme] 1.5 μM (subunit)
  Keq: 15.6
[2]; [L-Glutamate] start 12.9 mM, [Enzyme] 0.30 μM (subunit)
  Keq: 16.3
[2]; [L-Glutamate] start 22.1 mM, [Enzyme] 0.30 μM (subunit)
  Keq: 15.5
[2]; [L-Glutamate] start 22.9 mM, [Enzyme] 1.5 μM (subunit)
  Keq: 15.3
[1]
  rate of reaction to the other isomer: 5.9 μmoles min^−1· (mg protein)^−1
[1]; 37° C., forward direction
  maximum velocity: 7 μmoles of β-glutamate min^−1· (mg protein)^−1
[1]; Assay 1, 37° C.
  Vmax: 7.5 ± 0.18 μmoles · β-Glutamate min^−1 (mg protein)^−1
  kcat: 6.2 s⁻¹
[1]; Assay 1, 37° C., read-out: Km (L-Glutamate)
  Km: 2.2 ± 0.16 mM
[1]; Assay 2, 37° C.
  Vmax: 7.3 ± 0.19 μmoles · β-Glutamate min^−1 (mg protein)^−1
  kcat: 6.0 s⁻¹
[1]; Assay 2, 37° C., read-out: Km (L-Glutamate)
  Km: 2.3 ± 0.18 mM
[1]; conditions of Table 3
  kcat: 6 s⁻¹
[1]; forward direction, conditions of Table 3, read-out: Michaelis constant (Km)
  Km: 2 mM
[1]; SAM +, Dithionite +, 37° C.
  Specific Activity: 5.9 μmoles · min^−1 · mg^−1 Protein
[1]; SAM +, Dithionite −, 37° C.
  Specific Activity: 0.16 μmoles · min^−1 · mg^−1 Protein
[1]; SAM −, Dithionite +, 37° C.
  Specific Activity: <0.01 μmoles · min^−1 · mg^−1 Protein

## NCCCC[C@H](N)C(=O)O [L-lysine, reference compound]
[1]; substrate specificity
  conversion to β-lysine by glutamate 2,3-aminomutase: does not catalyze
